These results are taken from US10664967B2, “Methods, systems, and apparatuses for quantitative analysis of heterogeneous biomarker distribution” (Ventana Medical Systems, Inc., priority 2014, dated 2020).

The subject of this experiment is SKBR3 cells. In words: Phosphomarker expression in untreated vs drug treated FFPE SKBR3 cells (multiplexed QD spectral imaging, IF, immunoblot). The note with it: 250 nM, 24 hrs, MTIP, consistent with IF and immunoblot. It counts as cell-based. The method, then: Breast cancer cell line model SKBR3 and the prostate adenocarcinoma cell line model LNCaP were cultured in McCoy's 5A medium supplemented with 10% FBS. SKBR3 cells were treated with the ATP-competitive pan-AKT kinase inhibitor drug GSK690693 at low nanomolar concentration (250 nM) for 24 hrs for antibody validation studies. After drug treatment, cells were washed using cold 1×PBS, fixed in cold 10% Neutral Buffered Formalin and embedded in paraffin for sectioning and slide preparation.
Protein samples from SKBR3 cells were prepared by denaturing cell lysate in an equal volume of Laemmli sample buffer (Biorad, Hercules, Calif.) with 0.5 M dithiothreitol at 100° C. for 5 min. Proteins were separated by SDS-PAGE, transferred to polyvinylidene difluoride membranes, blotted with primary antibodies and detected with horseradish peroxidase-conjugated secondary antibodies. Protein bands were detected using ECL (Thermo Scientific).
Immunostaining for fluorescence spectral imaging was performed on FFPE specimens of SKBR3 cells and tumor tissue on a Benchmark XT autostainer (Ventana Medical Systems, Tucson, Ariz.), to evaluate phosphoprotein staining with the hapten-anti-hapten chemistry in FFPE cell and tumor specimens. All FFPE specimens (cell models, xenograft or tumor tissues) were subjected to automated deparaffinization in EZPREP buffer (VMSI Cat #950-102), and cell conditioning with CC1 buffer (VMSI Cat #950-124) for 90 min prior to antibody incubations. FFPE specimens were incubated with a single or a cocktail of hapten-conjugated primary antibodies (pS6:BF, pAKT 5473:DIG, peIF4G:TS, pPRAS40:NP, pERK 1/2:NCA, pAKT T308:DNP at 5, 15, 20, 20, 30, 12.5 μg/mL respectively) at 37° C. for 32 minutes. Following the primary antibody incubation step, samples were incubated by appropriate combination of secondary anti-hapten antibody QD conjugates (anti-BF:QD525, anti-DIG:QD565, anti-TS:QD585, anti-NP:[…], anti-NCA:QD625, anti-DNP:QD655 at 40, 50, 50, 70, 40, 30 nM concentrations respectively) at 37° C. for 32 minutes. Following automated staining with antibodies, samples were dehydrated in ethanol series, followed by xylene, and mounted using Cytoseal 60 (Thermo Scientific).
The specificity of the antibodies selected was tested using a series of IHC experiments using FFPE cell and xenograft model systems (FIGS. 14 15 and 16). The anti-phosphomarker hapten conjugated primary and anti-hapten monoclonal secondary functionality was tested using the SKBR3 cell line, a well-established breast cancer model of PI3K pathway activation (Englemen PNAS ref). SKBR3 cells were either untreated or treated with the AKT small molecule inhibitor GSK690693. The two cell populations were prepared as FFPE blocks and stained using the anti-phosphomarker primaries, followed by anti-hapten secondary antibodies conjugated to HRP to permit contrast through DAB. This permitted verification of the hapten-anti-hapten labeling scheme (FIG. 14; the DAB stain pattern was consistent with primary-anti-species secondary staining performed in parallel).
A multiplexed experiment was then conducted using the combined markers followed by hyperspectral imaging and processing to separate the signal contributions for each marker (FIG. 14b). For additional comparison, SKBR3 cell lysates were subjected to immunoblotting with all six phosphoantibodies (FIG. 14c). […] The similarity of phosphomarker expression changes upon drug treatment detected using MTIP to that observed in the IF and immunoblot staining validate the specificity and functionality of the conjugated antibodies used in the multiplexed assay context.
A general note: A western blot detects proteins with antibodies after separation by electrophoresis.

Consider `CCn1c(-c2nonc2N)nc2c(C#CC(C)(C)O)ncc(OC[C@H]3CCCNC3)c21` [GSK690693], for which the “pAKT308 expression change following drug treatment” value was “relative increase in expression”, the “pAKT473 expression change following drug treatment” value is “relative increase in expression”, the “pERK expression change following drug treatment” value is recorded as “reduction in the expression” and the “pPRAS40 expression change following drug treatment” value is on record as “reduction in the expression”. Besides, the “pS6 expression change following drug treatment” value was “reduction in the expression” and the “peIF4G expression change following drug treatment” value is given as “did not show any significant change in the expression”.
